# Results published in PMC11243625, “Synthesis, Docking, and Machine Learning Studies of Some Novel Quinolinesulfonamides–Triazole Hybrids with Anticancer Activity” (Molecules, 2024).
# pIC50: −log10 of the molar value. Entries after “also recorded” stand apart in the source; their conditions may differ. Read-outs that look alike come from different tables or passages of the source.
# Legend:
# [1] = test system: Caco-2; experiment: WST-1 test, colon cancer cells; type: cell-based, human; conditions: Homo sapiens, Caco-2, 72 h
# Method: Hybrids 4–14 were tested as anticancer agents against four human cancer cell lines: colon cancer (Caco-2), glioblastoma (SNB-19), lung cancer (A549), ovarian cancer (SKOV-3), and normal human dermal fibroblasts (NHDFs).
# (§1) Cell cultures were performed in 96-well plates (Nunc Thermo Fisher Scientific, Waltham, MA, USA). Cells were seeded at 5 × 10^4/well and incubated for 24 h (at 37 °C, 5% CO2, and constant humidity). The medium was replaced with fresh with the addition of test compounds at a concentration of 0.1–100 µg/mL of DMSO and incubated again for another 72 h. After this time, the WST-1 test (Roche Molecular Biochemicals, Mannheim, Germany) was performed to assess the metabolic activity of the cells. Absorbance was measured at λ = 450 nm using a UVM340 microplate reader (Biogenet, Józefów, Poland). Results are expressed as the mean value of at least three independent experiments performed in triplicate.
# [2] = test system: SNB-19; experiment: WST-1 test, glioblastoma cells; type: cell-based, human
# Method: (§2) Hybrids 4–14 were tested as anticancer agents against four human cancer cell lines: colon cancer (Caco-2), glioblastoma (SNB-19), lung cancer (A549), ovarian cancer (SKOV-3), and normal human dermal fibroblasts (NHDFs). Cisplatin was used as the reference substance. The results are presented as the compound concentration of the compound (μM) that inhibits the growth of 50% of cancer cells compared to control cells (IC50). A negative value (Neg) means that the compound concentration of the tested hybrids was greater than 500 µM. […] It is generated only by a weak van der Waals interaction with Arg84. […] There is also a visible difference in activity depending on the type of group present on the triazole ring (substituent C in Figure 2). The results obtained indicate that hybrids containing aromatic systems as a C substituent in their structure, especially another quinoline molecule (compounds 9 and 10), have high activity.
# as §1
# [3] = test system: A549; experiment: WST-1 test, lung cancer cells; type: cell-based, human; conditions: for pIC50: read-out: IC50 A-549
# Method: as §2, §1
# [4] = test system: SKOV-3; experiment: WST-1 test, ovarian cancer cells; type: cell-based, human
# Method: as §2, §1
# [5] = test system: NHDF; experiment: WST-1 test, normal human dermal fibroblasts; type: cell-based; conditions: 72 h, WST-1, normal cells
# Method: as §2, §1
SMILES,pIC50 [1],"pIC50 ([2]; Homo sapiens, SNB-19, 72 h)","pIC50 ([3]; Homo sapiens, A549, 72 h)","pIC50 ([4]; Homo sapiens, SK-OV-3, 72 h)","pIC50 ([5]; Homo sapiens, NHDF)",melting point,pIC50 ([2]; 72 h),IC50 A-549 ([3]; 72 h),IC50 NHDF [5],pIC50 ([3]; 72 h),pIC50 ([4]; 72 h),pIC50 [5]
"CN(Cc1cn(Cc2ccccc2)nn1)S(=O)(=O)c1cccc2cccnc12 [Compound 4b, 8-N-Methyl-N-[(1-benzyl-1H-1,2,3-triazol-4-yl)methyl]quinolinesulfonamide]",6.40,5.93,5.11,4.18,3.72,103 to 105 °C,,,,,,
"O=S(=O)(NCc1cn(Cc2ccccc2)nn1)c1cccc2cccnc12 [Compound 4a, 8-N-[(1-Benzyl-1H-1,2,3-triazol-4-yl)methyl]quinolinesulfonamide]",4.58,< 3.30,< 3.30,< 3.30,< 3.30,125 to 126 °C,,,,,,
"CN(Cc1cn(-c2ccnc3cc(Cl)ccc23)nn1)S(=O)(=O)c1cccc2cccnc12 [Compound 9b, 8-N-Methyl-N-{[1-(7-chloroquinolin-4-yl)-1H-1,2,3-triazol-4-yl]methyl}quinolinesulfonamide]",6.59,≥ 6.40,6.40,5.38,< 3.30,189 to 190 °C,6.42,nanomolar concentration range,lack of cytotoxicity; also recorded: no activity towards NHDF,,,
"CN(Cc1cn(Cc2ccc(C#N)cc2)nn1)S(=O)(=O)c1cccc2cccnc12 [Compound 5b, 8-N-Methyl-N-{[1-(4-cyanobenzyl)-1H-1,2,3-triazol-4-yl]methyl}quinolinesulfonamide]",6.40,6.39,6.10,4.85,5.04,112 to 113 °C,,nanomolar concentration range,have activity against normal cells,,,
"CN(Cc1cn(Cc2ccc([N+](=O)[O-])cc2)nn1)S(=O)(=O)c1cccc2cccnc12 [Compound 7b, 8-N-Methyl-N-{[1-(4-nitrobenzyl)-1H-1,2,3-triazol-4-yl]methyl}quinolinesulfonamide]",5.61,6.39,< 3.30,< 3.30,< 3.30,103 to 105 °C,,,,,,
"O=S(=O)(NCc1cn(CSc2ccccc2)nn1)c1cccc2cccnc12 [Compound 8a, 8-N-[(1-Methylthiophenyl-1H-1,2,3-triazol-4-yl)methyl]quinolinesulfonamide]",4.84,4.14,5.43,3.94,4.39,106 to 107 °C,,,,,,
"N.N.[Cl][Pt][Cl] [Cisplatin, reference compound]",,,,,,,5.53,,,3.34,4.38,< 3.30
"O=[N+]([O-])c1ccc(Cn2cc(CNS(=O)(=O)c3cccc4cccnc34)nn2)cc1 [Compound 7a, 8-N-{[1-(4-Nitrobenzyl)-1H-1,2,3-triazol-4-yl]methyl}quinolinesulfonamide]",6.51,6.08,4.44,4.77,3.77,135 to 136 °C,,,,,,
"O=S(=O)(NCc1cn(-c2ccnc3c(Br)cccc23)nn1)c1cccc2cccnc12 [Compound 10a, 8-N-{[1-(8-Bromoquinolin-4-yl)-1H-1,2,3-triazol-4-yl]methyl}quinolinesulfonamide]",5.01,4.43,3.95,4.02,< 3.30,194 to 195 °C,,,,,,
"N#Cc1ccc(Cn2cc(CNS(=O)(=O)c3cccc4cccnc34)nn2)cc1 [Compound 5a, 8-N-{[1-(4-Cyanobenzyl)-1H-1,2,3-triazol-4-yl]methyl}quinolinesulfonamide]",5.66,< 3.30,< 3.30,< 3.30,< 3.30,110 to 111 °C,,,,,,
"CN(Cc1cn(CSc2ccccc2)nn1)S(=O)(=O)c1cccc2cccnc12 [Compound 8b, 8-N-Methyl-N-[(1-methylthiophenyl-1H-1,2,3-triazol-4-yl)methyl]quinolinesulfonamide]",6.47,≥ 6.40,< 3.30,< 3.30,< 3.30,118 to 119 °C,6.46,,,,,
"CN(Cc1cn(Cc2ccc(F)cc2)nn1)S(=O)(=O)c1cccc2cccnc12 [Compound 6b, 8-N-Methyl-N-{[1-(4-fluorobenzyl)-1H-1,2,3-triazol-4-yl]methyl}quinolinesulfonamide]",4.71,3.81,< 3.30,< 3.30,< 3.30,85 to 86 °C,,,,,,
"Cc1cn(C2CC(n3cc(CN(C)S(=O)(=O)c4cccc5cccnc45)nn3)C(CO)O2)c(=O)[nH]c1=O [Compound 11b, 8-N-Methyl-N-({1-[(2R, 3S, 5S)-2-(hydroxymethyl)-5-(5-methyl-2,4-dioxo-3,4-dihydropyrimidin-1(2H)-yl)tertrahydrofuran-3-yl]-1H-1,2,3-triazol-4-yl}methyl)quinolinesulfonamide]",6.32,6.23,5.89,5.15,4.01,176 to 178 °C,,,have activity against normal cells,,,
"O=S(=O)(NCc1cn(Cc2ccc(F)cc2)nn1)c1cccc2cccnc12 [Compound 6a, 8-N-{[1-(4-Fluorobenzyl)-1H-1,2,3-triazol-4-yl]methyl}quinolinesulfonamide]",4.56,< 3.30,< 3.30,< 3.30,< 3.30,118 to 119 °C,,,,,,
"C=C(Cn1cc(CNS(=O)(=O)c2cccc3cccnc23)nn1)[C@@H]1CC[C@]2(COC(C)=O)CC[C@]3(C)[C@H](CC[C@@H]4[C@@]5(C)CC[C@H](OC(C)=O)C(C)(C)[C@@H]5CC[C@]43C)[C@@H]12 [Compound 14a, 8-N-({1-[3β, 28-Diacetoxylup-20(29)-en-30-yl]-1H-1,2,3-triazol-4-yl}methyl)-quinolinesulfonamide]",< 3.30,3.99,< 3.30,< 3.30,< 3.30,148 to 149 °C,,,,,,
"Cc1cn(C2CC(n3cc(CNS(=O)(=O)c4cccc5cccnc45)nn3)C(CO)O2)c(=O)[nH]c1=O [Compound 11a, 8-N-({1-[(2R, 3S, 5S)-2-(Hydroxymethyl)-5-(5-methyl-2,4-dioxo-3,4-dihydropyrimidin-1(2H)-yl)tertrahydrofuran-3-yl]-1H-1,2,3-triazol-4-yl}methyl)quinolinesulfonamide]",6.44,3.89,4.74,3.84,3.71,149 to 150 °C,,,,,,
"CCOC(=O)CCn1cc(CN(C)S(=O)(=O)c2cccc3cccnc23)nn1 [Compound 13b, Ethyl 3-{[4-(N-methylsulfamoyl-8-quinolyl)methyl]-1H-1,2,3-triazol-1-yl}propanoate]",4.07,3.86,< 3.30,4.05,< 3.30,,,,,,,
